Data published in patent US20200237759A1, “DOSAGE REGIME AND METHOD FOR TREATING PULMONARY ARTERIAL HYPERTENSION” (Altavant Sciences GmbH, priority 2019, published 2020).
Entries after “also recorded” stand apart in the source; their conditions may differ.

Tests used:
serum 5-HT = assay: Part 2 MAD biomarker: serum 5-HT change from Day 1; format: in vivo, human
Text: Biomarkers were to be evaluated in Part 2 by measuring concentrations of serotonin (5-hydroxytryptamine [5-HT]) in serum and 5-hydroxyindoleacetic acid (5-HIAA) in plasma and urine. As well, the relationship of biomarkers to PK parameters was to be evaluated.
The biomarker analysis was to be based on the Biomarker Population (all subjects with evaluable biomarker measurements at baseline [Day 1 predose] and at least one after dosing [Day 7 or Day 14]).
Biomarker data were to be collected only in Part 2. The following biomarkers were to be analyzed: • Serum 5-HT • Plasma 5-HIAA • Urine 5-HIAA/24 hours (as measured, adjusted, estimated, and per gram creatinine)
Linear regression was to be performed using biomarker changes, absolute and relative (%), from Day 1, at predose on Day 7 or Day 14 versus AUC0-24, Cmax, and Cmin in corresponding study days. The slopes and corresponding 95% confidence intervals (CIs) were to be tabulated.
Summary statistics (mean, standard deviation [SD], median, minimum [Min], and maximum [Max]) were to be tabulated for each biomarker, by Cohort, with absolute and relative (%) changes from Day 1 predose.
The values were to be tabulated with P values testing whether the difference of changes was equal to 0.
The biomarker portion of the study was conducted in Part 2 MAD using the Biomarker Population. The biomarkers evaluated were serum 5-HT and plasma 5-HIAA, as well as urine 5-HIAA/24 hours (as measured, adjusted, estimated, and per gram creatinine). Urinary 5-HIAA was determined by a validated (21 C.F.R. 58, GLP-compliant) method using liquid chromatographic separation and tandem mass spectrometry detection.
The Biomarker Population consisted of all subjects with evaluable baseline (Day 1 predose) and at least one postdose (Day 7 or Day 14) biomarker measurements.
Biomarker data were analyzed for each KAR5585 dose separately, for all KAR5585 doses pooled, and for all placebo subjects pooled. […]

[1] = Part 1 SAD urine pharmacokinetics (urinary excretion, renal clearance); format: in vivo, human
Experimental: Renal clearance of KAR5417 was calculated from the area under the plasma time concentration curve (AUC0-96) for KAR5417 and the amount of KAR5417 recovered in urine (Table 21).

[2] = KAR5585 700 mg single oral dose

SMILES | correlation of change from baseline in serum 5-HT with AUC0-24, Cmax, C12 or AUC0-12 (serum 5-HT; Day 7) | correlation of change from baseline in serum 5-HT with AUC0-24, Cmax, C12 or AUC0-12 (serum 5-HT; Day 14) | highest amount excreted in urine, of the dose ([1]; 400 mg fed Cohort (Cohort 3B)) [%] | Plasma AUC0-96 Mean ([1]; KAR5585 100 mg single oral dose) [ng·h/mL] | Plasma AUC0-96 Mean ([1]; KAR5585 400 mg single oral dose, fasted) [ng·h/mL] | Plasma AUC0-96 Mean ([1]; KAR5585 400 mg single oral dose, fed) [ng·h/mL] | CLR Mean [1, 2] [mL/h] | Plasma AUC0-96 Mean [1, 2] [ng·h/mL] | CLR Mean ([1]; KAR5585 1200 mg single oral dose) [mL/h] | mean difference of percent changes from Day 1 in serum 5-HT compared to placebo (serum 5-HT; Day 7, 200 mg fed dose group) | amount excreted (Ae) in urine, of the administered dose ([1]; single oral KAR5585, all dose levels) | quantifiability in urine samples ([1]; single oral KAR5585, almost all subjects)
Nc1nc(O[C@H](c2ccc(Cl)cc2-c2ccccc2)C(F)(F)F)cc(N2CCC3(CC2)CN[C@H](C(=O)O)C3)n1 [KAR5417, (S)-8-(2-amino-6-((R)-1-(5-chloro-[1,1′-biphenyl]-2-yl)-2,2,2-trifluoroeth-oxy)pyrimidin-4-yl)-2,8-diazaspiro[4.5]decane-3-carboxylic acid] | no significant correlations | correlated | 0.331 | 889 | 3630 | 6590 | 191 | 5990 | 157 | – | – | –
CCOC(=O)[C@@H]1CC2(CCN(c3cc(O[C@H](c4ccc(Cl)cc4-c4ccccc4)C(F)(F)F)nc(N)n3)CC2)CN1 [KAR5585, (S)-ethyl 8-(2-amino-6-((R)-1-(5-chloro-[1,1′-biphenyl]-2-yl)-2,2,2-trifluoroethoxy)pyrimidin-4-yl)-2,8-diazaspiro[4.5]decane-3-carboxylate] | – | – | – | – | – | – | – | – | – | statistically significant | less than 0.004% | could not be quantified in urine samples; also recorded: not quantifiable in urine in almost all subjects
